In ChEMBL document CHEMBL5038621, “Development of anti-inflammatory peptidomimetics based on the structure of human alpha1-antitrypsin” (2022) one finds inhibition and Activity data, which are given here for 16 molecules.

The target of assay [1] is T1, Neutrophil elastase (Homo sapiens) (UniProt P08246).
T1 sequence (whole entry): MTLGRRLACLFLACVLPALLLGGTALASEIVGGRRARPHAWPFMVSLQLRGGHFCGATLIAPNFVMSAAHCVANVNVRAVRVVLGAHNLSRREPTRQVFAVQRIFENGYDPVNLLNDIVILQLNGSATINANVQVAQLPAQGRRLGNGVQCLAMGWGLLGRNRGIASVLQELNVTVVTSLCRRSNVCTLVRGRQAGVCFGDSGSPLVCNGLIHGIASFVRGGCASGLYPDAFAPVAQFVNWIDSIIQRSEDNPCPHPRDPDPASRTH
Kind of assay: Inhibition of neutrophil elastase (unknown origin) at 0.96 to 96.15 uM. The following applies: dose 0.96-96.15 µM.

The nature of assay [2]: Antiinflammatory activity against LPS-stimulated ThG elicited C57BL/6 mouse peritoneal macrophages assessed as reduction in cell surface CD40 expression measured after 24 hrs by Flow cytometry analysis. The assay is classed as functional, Peritoneal macrophage. On the set-up: concentration or dose not given beside the values. (In general: A flow cytometer gives signals particle by particle.)

A short description of assay [3]: Antiinflammatory activity against LPS-stimulated ThG elicited C57BL/6 mouse peritoneal macrophages assessed as inhibition of LPS-induced IL6 production measured after 24 hrs by Griess assay. The class given is functional, Peritoneal macrophage. Also noted: concentration or dose not given beside the values. (The Griess reaction detects nitrite, a stable product of nitric oxide.)

Assay [4] can be described thus: Antiinflammatory activity against LPS-stimulated ThG elicited C57BL/6 mouse peritoneal macrophages assessed as inhibition of LPS-induced NO production measured after 24 hrs by Griess assay. The class given is functional, Peritoneal macrophage. On the set-up: concentration or dose not given beside the values.
Assay [5] in a line: Antiinflammatory activity against LPS-stimulated ThG elicited C57BL/6 mouse peritoneal macrophages assessed as reduction in cell surface CD86 expression measured after 24 hrs by Flow cytometry analysis. The assay is classed as functional, Peritoneal macrophage. On the set-up: concentration or dose not given beside the values.
The nature of assay [6]: Antiinflammatory activity against LPS-stimulated ThG elicited C57BL/6 mouse peritoneal macrophages assessed as inhibition of LPS-induced TNFalpha production measured after 24 hrs by ELISA. On the set-up: scale not given: the % may be the effect or the level left. The assay is classed as functional, Peritoneal macrophage. (In general: In an ELISA, binding on a coated surface is turned into a signal by an enzyme label.)

In assay [7] the test system is Mus musculus. As to the kind of experiment: Antiinflammatory activity in LPS-induced C57BL/6 mouse peritonitis model assessed as increase in F4/80 peritoneal cell population at 50 ug, ip treated for 3 hrs followed by LPS stimulation and measured after 24 hrs post stimulation by flow cytometry. The assay is classed as functional. The following applies: dose 50 µg.
Assay [8] has as its system Mus musculus. As to the kind of experiment: Antiinflammatory activity in LPS-induced C57BL/6 mouse peritonitis model assessed as reduction in LPS-induced serum IL-6 levels at 50 ug, ip treated for 3 hrs followed by LPS stimulation and measured after 24 hrs post stimulation by ELISA. The class given is functional. On the set-up: scale not given: the % may be the effect or the level left. The following applies: dose 50 µg.

Assay [9] concerns Mus musculus. Kind of assay: Antiinflammatory activity in LPS-induced C57BL/6 mouse peritonitis model assessed as increase in Gr1 cell population at 50 ug, ip treated for 3 hrs followed by LPS stimulation and measured after 24 hrs post stimulation by flow cytometry. The assay is classed as functional. The note with it: dose 50 µg.
Assay [10] concerns Mus musculus. As to the kind of experiment: Antiinflammatory activity in LPS-induced C57BL/6 mouse peritonitis model assessed as reduction in CD86 protein expression at 50 ug, ip treated for 3 hrs followed by LPS stimulation and measured after 24 hrs post stimulation by flow cytometry. The assay is classed as functional. On the set-up: scale not given: the % may be the effect or the level left. The note with it: dose 50 µg.

Assay [11] concerns Mus musculus. As to the kind of experiment: Antiinflammatory activity in LPS-induced C57BL/6 mouse peritonitis model assessed as reduction in CD40 protein expression at 50 ug, ip treated for 3 hrs followed by LPS stimulation and measured after 24 hrs post stimulation by flow cytometry. On the set-up: scale not given: the % may be the effect or the level left. The following applies: dose 50 µg. The assay is classed as functional.

For assay [12], the system named is Mus musculus. As to the kind of experiment: Antiinflammatory activity in LPS-induced C57BL/6 mouse peritonitis model assessed as reduction in LPS-induced serum TNF alpha levels at 50 ug, ip treated for 3 hrs followed by LPS stimulation and measured after 24 hrs post stimulation by ELISA. The following applies: dose 50 µg. The assay is classed as functional. Also noted: scale not given: the % may be the effect or the level left.

Activity calls are given as the source filed them. The calls are words filed in the database; no cut-off is given here. Peptide text beside a SMILES is read from it.

As to `CC[C@H](C)[C@H](NC(=O)[C@H](CCC(=O)O)NC(=O)[C@H](CC(C)C)NC(=O)[C@H](CCCCN)NC(=O)[C@H](CCCCN)NC(=O)[C@H](CS)NC(=O)[C@H](Cc1c[nH]cn1)NC(=O)[C@H](CCC(N)=O)NC(C)=O)C(=O)N[C@@H](CCCCN)C(N)=O` (Ac-QHCKKLEIK-NH2), the inhibition result in [1] is “inactive”.
As to `CC(=O)N[C@@H](CC(C)C)C(=O)N[C@@H](CCC(=O)O)C(=O)NCC(=O)N1CCC[C@H]1C(=O)N[C@@H](CCCCN)C(=O)N[C@@H](C)C(N)=O` (Ac-LEGPKA-NH2), the inhibition result in assay [1] was “inactive”.
For `CC[C@H](C)[C@H](NC(=O)[C@@H](NC(=O)[C@H](Cc1ccc(O)cc1)NC(=O)[C@H](CC(C)C)NC(=O)[C@H](Cc1ccccc1)NC(=O)[C@H](CC(C)C)NC(C)=O)C(C)C)C(=O)N[C@@H](Cc1c[nH]cn1)C(N)=O` (Ac-LFLYVIH-NH2), in [1], the inhibition entry is “inactive”. Also, the results for the Activity in assay [2], in assay [3] and in assay [4] were 45.7%, 38.4% and 57.6%, respectively.
Turning to `NC(=O)c1ccc(CNC(=O)C(Cc2c[nH]cn2)NCc2ccc(O)cc2)cc1` (configuration not stated), the figures for the Activity in assay [2], in assay [5] and in [3] were 49.3%, 20.4% and 46.3%, respectively.
As for `CC(=O)N[C@@H](Cc1c[nH]cn1)C(=O)N[C@@H](CS)C(=O)N[C@@H](CCCCN)C(=O)N[C@@H](CCCCN)C(=O)N[C@@H](CC(C)C)C(=O)NCC(=O)N[C@@H](CCCCN)C(=O)N[C@@H](Cc1ccccc1)C(N)=O` (Ac-HCKKLGKF-NH2), in assay [1], the inhibition entry was “inactive”.
With `CC[C@H](C)[C@H](NC(=O)[C@H](CO)NC(=O)[C@H](CC(C)C)NC(=O)[C@H](CC(C)C)NC(=O)[C@@H](NC(=O)CNC(=O)[C@@H](NC(=O)[C@H](C)NC(C)=O)[C@@H](C)O)[C@@H](C)O)C(=O)N[C@@H](CC(N)=O)C(N)=O` (Ac-ATGTLLSIN-NH2), the inhibition result in assay [1] is “inactive”.
Regarding `CC(=O)N[C@@H](Cc1ccccc1)C(=O)N[C@@H](CCCNC(=N)N)C(=O)N[C@@H](Cc1ccc(O)cc1)C(=O)N[C@@H](CC(C)C)C(=O)N[C@H](C(=O)N[C@@H](CC(C)C)C(=O)N[C@@H](Cc1ccccc1)C(N)=O)C(C)C` (Ac-FRYLVLF-NH2), the inhibition entry in assay [1] was “inactive”.
For the molecule `CC(=O)N[C@@H](Cc1ccc(O)cc1)C(=O)N[C@@H](CCCNC(=N)N)C(=O)N[C@@H](C)C(=O)N[C@@H](Cc1c[nH]cn1)C(=O)N[C@@H](CCC(N)=O)C(=O)NCC(=O)N[C@@H](CCC(=O)O)C(N)=O` (Ac-YRAHQGE-NH2), the inhibition result in assay [1] was “inactive”. Also, the Activity in [2] is listed as 55.3%; in assay [5] it was 52.4%; in assay [3], 52.2%; in assay [4], 66.9%.
With `NC(=O)CCC(NC(=O)C1Cc2nc[nH]c2CN1)C(N)=O` (configuration not stated), the Activity in assay [6] came out at 24.4%; in assay [3] it was 46.3%.
For the molecule `NC(=O)C(NC(=O)C(Cc1c[nH]cn1)NCc1ccc(O)cc1)c1ccccc1` (configuration not stated), the Activity in assay [6] was found to be 19.9%; in assay [2], 27.4%; in the assay with Mus musculus [7], 130.4%; in [5], 16.4%; in the assay with Mus musculus [8], 80.6%; in the assay with Mus musculus [9] it was 48.4%. Further, the Activity is on record as 45.6% in the assay with Mus musculus [10]; 33.5% in [3]; 38.7% in assay [4]; 47.3% in the assay on Mus musculus [11]; 73.4% with Mus musculus [12].
For `COc1cccc(C(=O)NC(Cc2c[nH]cn2)C(=O)NC(C(N)=O)c2ccccc2)c1OC` (configuration not stated), in assay [3], the Activity is reported as 46.3%.
Still for that read-out and setting: as for `NC(=O)c1ccc(CNC(=O)C(Cc2c[nH]cn2)NCc2cccc(O)c2)cc1` (configuration not stated), the figure is 46.3%.
In the case of `CC(=O)N[C@@H](CCC(N)=O)C(=O)N[C@@H](Cc1ccccc1)C(=O)N[C@@H](Cc1ccccc1)C(=O)N[C@@H](CCCCN)C(=O)NCC(=O)N[C@@H](CCCCN)C(N)=O` (Ac-QFFKGK-NH2), in [1], the inhibition entry is “inactive”. Further, the Activity in [2] is reported as 41.6%; in assay [5], 35.2%; in [4] it was 51.8%.
Take `COc1cccc(C(=O)NC(Cc2c[nH]cn2)C(=O)NCc2ccc(C(N)=O)cc2)c1OC` (configuration not stated): the Activity in assay [3] is 46.3%; in assay [4], 29.5%.
For the molecule `CC(=O)N[C@@H](CC(=O)O)C(=O)N[C@@H](CC(C)C)C(=O)N[C@@H](CCCCN)C(=O)N[C@@H](CCCCN)C(=O)N[C@@H](CC(=O)O)C(=O)N[C@@H](CCCCN)C(=O)N[C@@H](C)C(N)=O` (Ac-DLKKDKA-NH2), in [1], the inhibition entry was “inactive”.
As to `CC(=O)N[C@@H](CC(C)C)C(=O)N1CCC[C@H]1C(=O)N[C@@H](CC(N)=O)C(=O)N[C@@H](CO)C(=O)N[C@@H](CC(C)C)C(=O)NCC(=O)N[C@@H](CC(N)=O)C(N)=O` (Ac-LPNSLGN-NH2), the inhibition result in assay [1] was “inactive”. Moreover, the Activity in assay [5] came to 24.7%; in assay [4] it was 70.3%.
